Data from the NIST ThermoML archive (doi:10.1021/je700714m).

Experiments:
[1] = xn = mol fraction of the nth substance listed; conditions: for mass density / speed of sound / viscosity: 100 kPa, Liquid
[2] = refractive index (Na D-line) (dimensionless); xn = mol fraction of the nth substance listed; conditions: 100 kPa, Liquid

COc1ccc(C=O)cc1 [4-methoxybenzaldehyde] + Clc1ccccc1
Conditions	mass density, [1] [kg/m3]	refractive index, [2]	speed of sound, [1] [m/s]	surface tension liquid-gas, [1] [mN/m]	viscosity, [1] [mPa·s]
303.15 K, x1 = 0.144	1105.1	1.5589	1339	43.12	0.8478
303.15 K, x1 = 0.2517	1107	1.5587	1383	50.12	1.023
303.15 K, x1 = 0.3354	1109.1	1.5586	1418	56	1.168
303.15 K, x1 = 0.4308	1111.2	1.5585	1459	62.5	1.334
303.15 K, x1 = 0.5457	1113.2	1.5583	1505	70.14	1.566
303.15 K, x1 = 0.6271	1115.3	1.5581	1537	75.82	1.771
303.15 K, x1 = 0.7371	1118	1.5578	1580	84.11	2.086
303.15 K, x1 = 0.8079	1122	1.5576	1607	87.59	2.353
303.15 K, x1 = 0.9439	1124	1.5572	1662	96.09	2.948
303.15 K, x1 = 1	1125.5	1.5571	1684	99.08	3.275
313.15 K, x1 = 0.144	1085.1	1.5508	820	41.6	0.7705
313.15 K, x1 = 0.2517	1089.3	1.5507	924	49.11	0.9236
313.15 K, x1 = 0.3354	1092.1	1.5506	1004	55.33	1.047
313.15 K, x1 = 0.4308	–	1.5504	1097	62.12	1.178
313.15 K, x1 = 0.5457	1100.5	1.5502	1207	71.23	1.357
313.15 K, x1 = 0.6271	1103.5	1.55	1283	78.22	1.497
313.15 K, x1 = 0.7371	1107.2	1.5497	1385	83.11	1.762
313.15 K, x1 = 0.8079	1110.2	1.5494	1452	86.41	1.986
313.15 K, x1 = 0.9439	1116.3	1.549	1577	94.66	2.596
313.15 K, x1 = 1	1119.1	1.5488	1631	96.11	2.97
323.15 K, x1 = 0.144	1073.5	1.548	738	40.52	0.6646
323.15 K, x1 = 0.2517	1078.6	1.5479	758	47.99	0.8222
323.15 K, x1 = 0.3354	1082.5	1.5478	850	53.34	0.9386
323.15 K, x1 = 0.4308	1086.3	1.5477	955	60.11	1.059
323.15 K, x1 = 0.5457	1091.6	1.5475	1082	68.77	1.192
323.15 K, x1 = 0.6271	1095	1.5475	1170	75.22	1.287
323.15 K, x1 = 0.7371	1100	1.5474	1290	82.89	1.474
323.15 K, x1 = 0.8079	1103	1.547	1365	85.22	1.635
323.15 K, x1 = 0.9439	1110.1	1.5466	1511	93.44	2.122
323.15 K, x1 = 1	1114.1	1.5463	1571	94.1	2.442
